From US20250333397A1 (REMIX THERAPEUTICS INC., priority 2021, published 2025) come the findings set out here.

Like-named read-outs stand apart in the source and are kept apart here.

Assay type in all cases: cell-based, human
One test deals with Target C mRNA. The experiment in a line: RT-qPCR splicing assay panel, Target C canonical junction (CJ) mRNA. Conditions: Homo sapiens. Here is the method:
(§1) Compounds described herein were used to modulate RNA transcript abundance in cells. The expression of a target mRNA was measured by detecting the formation of an exon-exon junction in the canonical transcript (CJ). A compound mediated exon-inclusion event was detected by observing an increase in formation of a new junction with an alternative exon (AJ). Real-time qPCR assays were used to detect these splicing switches and interrogate the potency of various compounds towards different target genes. A high-throughput real time quantitative PCR (RT-qPCR) assay was developed to measure these two isoforms of the mRNA (CJ and AJ) for exemplary genes, such as HTT, SMN2, and MYB, together with a control housekeeping gene, GAPDH or GUSB or PPIA, used for normalization. Briefly, the A673 or K562 cell line was treated with various compounds described herein (e.g., compounds of Formula (I), (II), (III), (IV)). After treatment, the levels of the HTT, MYB, or SMN2 mRNA targets were determined from each sample of cell lysate by cDNA synthesis followed by qPCR.
(§2) The A673 cell line was cultured in DMEM with 10% FBS. Cells were diluted with full growth media and plated in a 96-well plate (15,000 cells in 100ul media per well). The plate was incubated at 37° C. with 5% CO2 for 24 hours to allow cells to adhere. An 11-point 3-fold serial dilution of the compounds was made in DMSO then diluted in media in an intermediate plate. Compounds were transferred from the intermediate plate to the cell plate with the top dose at a final concentration of 10 uM in the well. Final DMSO concentration was kept at or below 0.25%. The cell plate was returned to the incubator at 37° C. with 5% CO2 for an additional 24 hours.
(§3) The K562 cell line was cultured in IMDM with 10% FBS. For K562, cells were diluted with full growth media and plated in either a 96-well plate (50,000 cells in 50 uL media per well) or a 384-well plate (8,000-40,000 cells in 45 uL media per well). An 11-point 3-fold serial dilution of the compounds were made in DMSO then diluted in media in an intermediate plate.
(§4) Compound was transferred from the intermediate plate to the cell plate with the top dose at a final concentration of 10 uM in the well. Final DMSO concentration was kept at or below 0.25%.
(§5) Final volume was 100 uL for 96-well plate and 50 uL for 384-well plate. The cell plate was then placed in an incubator at 37° C. with 5% CO2 for 24 hours.
(§6) The cells were then gently washed with 50 uL-100 uL cold PBS before proceeding to addition of lysis buffer. 30 uL-50 μL of room temperature lysis buffer with DNAse I (and optionally RNAsin) was added to each well. Cells were shaken/mixed thoroughly at room temperature for 5-10 minutes for lysis to take place and then 3 uL-5 μL of room temperature stop solution was added and wells were shaken/mixed again. After 2-5 minutes, the cell lysate plate was transferred to ice for RT-qPCR reaction setup. The lysates could also be frozen at −80° C. for later use.
(§7) In some cases, a direct lysis buffer was used. An appropriate volume of 3× lysis buffer (10 mM Tris, 150 mM NaCl, 1.5%-2.5% Igepal and 0.1-1 U/uL RNAsin, pH 7.4) was directly added to either K562 or A673 cells in media and mixed by pipetting 3 times. The plates were then incubated at room temperature with shaking/rocking for 20-50 minutes to allow for lysis to take place. After this time, the cell lysate plate was transferred to ice to set up for the RT-qPCR reactions. The lysates could also be frozen at −80° C. for later use.
(§8) To set up 10 uL RT-qPCR reactions, cell lysates were transferred to 384-well qPCR plates containing the master mix according to the table below. The plates were sealed, gently vortexed, and spun down before the run. The volumes were adjusted accordingly in some instances where the reaction was carried in 20 μL. The table below summarizes the components of the RT-qPCR reactions: […]
A general note: Quantitative PCR measures a nucleic acid by following its amplification.

The next test relates to MYB mRNA. The test can be described thus: RT-qPCR splicing assay, MYB canonical (CJ) and alternative (AJ) junction mRNA. Conditions: Homo sapiens; for AC50: read-out: MYB AJ (AC50, increase in AJ mRNA). How it is done:
as §1, §2, §3, §4, §5, §6, §7, §8

A further test deals with SMN2 mRNA. The experiment in a line: RT-qPCR splicing assay panel, SMN2 canonical junction (CJ) mRNA. Conditions: Homo sapiens. How it is done:
as §1, §2, §3, §4, §5, §6, §7, §8

Another test concerns HTT mRNA. The test can be described thus: RT-qPCR splicing assay, HTT canonical (CJ) and alternative (AJ) junction mRNA. Conditions: Homo sapiens; for AC50: read-out: HTT AJ (AC50, increase in AJ mRNA). Here is the method: as §1, §2, §3, §4, §5, §6, §7, §8
Where [1] appears, read: canonical junction (CJ) mRNA, RT-qPCR panel, Table 4A, read-out: Target C, decrease in CJ mRNA levels, IC50.
[2] abbreviates: 24 h, Table 3A, A673 or K562 cells, 24 h treatment.
The mark [3] stands for this setting: 24 h, Table 3A, A673 or K562 cells, 24 h treatment, read-out: MYB CJ (IC50, decrease in CJ mRNA).
Where [4] appears, read: canonical junction (CJ) mRNA, RT-qPCR panel, Table 4A, read-out: MYB, decrease in CJ mRNA levels, IC50.
Setting [5] is: canonical junction (CJ) mRNA, RT-qPCR panel, Table 4A, read-out: SMN2, decrease in CJ mRNA levels, IC50.
The mark [6] stands for this setting: 24 h, Table 3A, A673 or K562 cells, 24 h treatment, read-out: HTT CJ (IC50, decrease in CJ mRNA).
[7] abbreviates: canonical junction (CJ) mRNA, RT-qPCR panel, Table 4A, read-out: HTT, decrease in CJ mRNA levels, IC50.
Where [8] appears, read: Table 4B, gene panel, read-out: Target C (IC50, decrease in CJ mRNA levels).
The mark [9] stands for this setting: 24 h, Table 3B, A673 or K562 cells, 24 h treatment.
[10] abbreviates: 24 h, Table 3B, A673 or K562 cells, 24 h treatment, read-out: MYB CJ (IC50, decrease in CJ mRNA).
The mark [11] stands for this setting: Table 4B, gene panel, read-out: MYB (IC50, decrease in CJ mRNA levels).
Where [12] appears, read: Table 4B, gene panel, read-out: SMN2 (IC50, decrease in CJ mRNA levels).
Where [13] appears, read: 24 h, Table 3B, A673 or K562 cells, 24 h treatment, read-out: HTT CJ (IC50, decrease in CJ mRNA).
Where [14] appears, read: Table 4B, gene panel, read-out: HTT (IC50, decrease in CJ mRNA levels).

The term IC50 denotes the concentration needed to halve the response being measured. As usually defined, the AC50 is the concentration giving half of the maximal activity seen. As to `Oc1cc(-c2cnnc(C3CC3)c2)ccc1-c1ccc(N2CC[C@H](NC3CCC3)C2)nn1` [Compound 280], the IC50 in the test with Target C mRNA (setting [1]) is more than 10000 nM; with MYB mRNA (setting [3]), 1000 to 10000 nM; in the test with MYB mRNA (setting [4]), 1000 to 10000 nM; in the test on SMN2 mRNA (setting [5]), 100 to 1000 nM; in the test with HTT mRNA (setting [6]) it was 1000 to 10000 nM; in the test on HTT mRNA (setting [7]), 1000 to 10000 nM. For the same molecule, the AC50 with MYB mRNA (setting [2]) was more than 10000 nM; in the test with HTT mRNA (setting [2]), 1000 to 10000 nM.
As for `CC(C)(C)NC1CCN(c2ccc(-c3cc4ccncc4cc3O)nn2)C1` (centres unmarked) [Compound 845], the IC50 with Target C mRNA (setting [8]) was 100 to 1000 nM; in the test with MYB mRNA (setting [10]), 100 to 1000 nM; in the test with MYB mRNA (setting [11]) it was 100 to 1000 nM; in the test with SMN2 mRNA (setting [12]), less than 100 nM; in the test with HTT mRNA (setting [13]), less than 100 nM; with HTT mRNA (setting [14]) it was less than 100 nM. Also, the AC50 in the test on MYB mRNA (setting [9]) is 100 to 1000 nM; with HTT mRNA (setting [9]) it was less than 100 nM.
For `COc1cc(-c2ccc(-c3ccc(N4CC[C@H](N[C@H]5C[C@H](F)C5)C4)nn3)c(O)c2)ncn1` [Compound 426], the IC50 lay within 1000 to 10000 nM in the test on Target C mRNA (setting [1]); 1000 to 10000 nM with MYB mRNA (setting [3]); 1000 to 10000 nM in the test on MYB mRNA (setting [4]); 100 to 1000 nM with SMN2 mRNA (setting [5]); 100 to 1000 nM with HTT mRNA (setting [6]); 100 to 1000 nM with HTT mRNA (setting [7]). Moreover, the values for the AC50 in the test on MYB mRNA (setting [2]) and in the test on HTT mRNA (setting [2]) were 1000 to 10000 nM and 100 to 1000 nM, respectively.
In the case of `Cc1ncc(-c2cc(O)c(-c3ccc(N4CC[C@@H](N(C)C5CCC5)C4)nn3)cc2F)s1` [Compound 269], the IC50 in the test with Target C mRNA (setting [1]), with MYB mRNA (setting [3]), with MYB mRNA (setting [4]), with SMN2 mRNA (setting [5]), with HTT mRNA (setting [6]) and with HTT mRNA (setting [7]) was less than 100 nM each time. In addition, the figures for the half-maximal activity concentration (AC50) in the test with MYB mRNA (setting [2]) and in the test with HTT mRNA (setting [2]) were 100 to 1000 nM and less than 100 nM, respectively.
As for `COc1cc(-c2cc(O)c(-c3ccc(N4CC[C@H](NC5CCC5)C4)nn3)cc2F)cnn1` [Compound 231, 2-{6-[(3S)-3-(cyclobutylamino)pyrrolidin-1-yl]pyridazin-3-yl}-4-fluoro-5-(6-methoxypyridazin-4-yl)phenol], the IC50 is 100 to 1000 nM in the test with Target C mRNA (setting [1]); 100 to 1000 nM in the test with MYB mRNA (setting [3]); 100 to 1000 nM in the test on MYB mRNA (setting [4]); less than 100 nM in the test with SMN2 mRNA (setting [5]); less than 100 nM in the test with HTT mRNA (setting [6]); less than 100 nM in the test on HTT mRNA (setting [7]). The AC50 is 100 to 1000 nM with MYB mRNA (setting [2]) and less than 100 nM in the test with HTT mRNA (setting [2]).
In the case of `Oc1cc(-c2cn[nH]c2)ccc1-c1ccc(N2CCC(NC3(C(F)(F)F)CC3)C2)nn1` (centres unmarked) [Compound 110, 5-(1H-pyrazol-4-yl)-2-[6-(3-{[1-(trifluoromethyl)cyclopropyl]amino}pyrrolidin-1-yl)pyridazin-3-yl]phenol], the IC50 with Target C mRNA (setting [1]), in the test on MYB mRNA (setting [3]), in the test with MYB mRNA (setting [4]), in the test on SMN2 mRNA (setting [5]), with HTT mRNA (setting [6]) and in the test on HTT mRNA (setting [7]) was more than 10000 nM in each case. Moreover, the AC50 with MYB mRNA (setting [2]) and with HTT mRNA (setting [2]) was more than 10000 nM each time.
Take `Cc1ncc(-c2cc(O)c(-c3ccc(N4CC[C@@H](N(C)C(C)(C)C)C4)nn3)cc2F)s1` [Compound 339, 2-{6-[(3R)-3-[tert-butyl(methyl)amino]pyrrolidin-1-yl]pyridazin-3-yl}-4-fluoro-5-(2-methyl-1,3-thiazol-5-yl)phenol]: the IC50 in the test with Target C mRNA (setting [1]), in the test with MYB mRNA (setting [3]), with MYB mRNA (setting [4]), in the test on SMN2 mRNA (setting [5]), in the test with HTT mRNA (setting [6]) and with HTT mRNA (setting [7]) was less than 100 nM in each case. Moreover, the AC50 in the test with MYB mRNA (setting [2]) and with HTT mRNA (setting [2]) was less than 100 nM in each case.
As to `Cn1cc2cc(-c3cnc(N4CC[C@@H](NC(C)(C)C)C4)nn3)c(O)cc2n1` [Compound 805], the IC50 in the test on Target C mRNA (setting [8]) lay in the range of 1000 to 10000 nM; in the test with MYB mRNA (setting [10]), 1000 to 10000 nM; in the test with MYB mRNA (setting [11]), 1000 to 10000 nM; in the test with SMN2 mRNA (setting [12]), 1000 to 10000 nM; in the test with HTT mRNA (setting [13]) it was 100 to 1000 nM; in the test on HTT mRNA (setting [14]), 100 to 1000 nM. Further, the AC50 is more than 10000 nM in the test on MYB mRNA (setting [9]) and 1000 to 10000 nM with HTT mRNA (setting [9]).
`COc1cc(-c2ccc(-c3ccc(N4CC[C@@H](N(C)C(C)(C)C)C4)nn3)c(O)c2)cnn1` [Compound 336, 2-{6-[(3R)-3-[tert-butyl(methyl)amino]pyrrolidin-1-yl]pyridazin-3-yl}-5-(6-methoxypyridazin-4-yl)phenol]: the IC50 with Target C mRNA (setting [1]), in the test with MYB mRNA (setting [3]), in the test on MYB mRNA (setting [4]), with SMN2 mRNA (setting [5]), with HTT mRNA (setting [6]) and in the test on HTT mRNA (setting [7]) was less than 100 nM each time. The AC50 in the test with MYB mRNA (setting [2]) and in the test with HTT mRNA (setting [2]) was less than 100 nM throughout.
`COc1cc(-c2ccc(-c3ccc(N4CC[C@@H](NC5(C)CCC5)C4)nn3)c(O)c2)ncn1` [Compound 383, 5-(6-methoxypyrimidin-4-yl)-2-{6-[(3R)-3-[(1-methylcyclobutyl)amino]pyrrolidin-1-yl]pyridazin-3-yl}phenol]: the IC50 was less than 100 nM in the test on Target C mRNA (setting [1]); 100 to 1000 nM with MYB mRNA (setting [3]); 100 to 1000 nM with MYB mRNA (setting [4]); less than 100 nM in the test on SMN2 mRNA (setting [5]); less than 100 nM in the test with HTT mRNA (setting [6]); less than 100 nM in the test with HTT mRNA (setting [7]). Besides, the AC50 is 100 to 1000 nM in the test on MYB mRNA (setting [2]) and less than 100 nM in the test with HTT mRNA (setting [2]).
